The nature of data set [1]: Inhibition of AGE formation assessed as reduction in bovin serum albumin glycation at 1 mM incubated for 24 hrs in presence of glucose by spectrophotometric analysis relative to control. The format is functional.
Data set [2] is described as follows: Ratio of antiplatelet activity for test compound to antiplatelet activity for acetylsalicylic acid in rabbit platelet rich plasma assessed as inhibition of ADP-induced platelet aggregation at 100 uM. The class given is functional, Oryctolagus cuniculus.
Data set [3] addresses T1, AMP-activated protein kinase (AMPK) alpha-1/beta-1/gamma-1 (Homo sapiens) (UniProt P54619+Q9Y478+Q13131). Briefly: Activation of C-terminal His tagged human recombinant full length AMPK alpha1/beta1/gamma1 expressed in baculovirus infected Sf9 cells using SAMS peptide as substrate at 100 uM incubated for 60 mins by ADP-Glo luminescence assay relative to control.
The species entered for data set [4] is Rattus norvegicus. Description: Antagonist activity at AT1 receptor in rat portal vein assessed as reduction in […] contraction at 10 uM incubated for 1 min relative to control. Further details: scale not given: the % may be the effect or the level left.
The test system of data set [5] is Platelet. Description: Antiplatelet activity in rabbit platelet rich plasma assessed as inhibition of ADP-induced platelet aggregation at 100 uM relative to control. The format is functional, Oryctolagus cuniculus. Further details: scale not given: the % may be the effect or the level left.
The target in data set [6] is T2, AMP-activated protein kinase (AMPK) alpha-1/beta-1/gamma-1 (Homo sapiens, UniProt P54619+Q13131+Q9Y478). Briefly: (§1) Activation of C-terminal His tagged human recombinant full length AMPK alpha1/beta1/gamma1 expressed in baculovirus infected Sf9 cells using SAMS peptide as substrate incubated for 60 mins by ADP-Glo luminescence assay. Background: In ADP-Glo the light output rises with the ADP produced.

Data set [7] concerns Peritoneal macrophage. Description: Cytotoxicity against mouse peritoneal macrophages up to 50 uM incubated for 24 hrs by neutral red assay. The class given is cell-based.
The nature of data set [8]: Solubility of the compound in PBS at pH 7.4. The class given is physicochemical.
Data set [9] relates to Peritoneal macrophage. Description: Anti-inflammatory activity in mouse peritoneal macrophages assessed as inhibition of LPS-induced NO production incubated for 22 hrs by Griess reagent based colorimetric assay. The format is functional, cell-based. (Griess reagent forms a coloured azo dye with nitrite.)
In data set [10] the test system is Peritoneal macrophage. Briefly: Cytotoxicity against mouse peritoneal macrophages up to 50 uM incubated for 24 hrs by MTT assay. The class given is cell-based. For orientation: Formazan colour is commonly taken as a measure of viable cells.
For data set [11], the target named is T1, AMP-activated protein kinase (AMPK) alpha-1/beta-1/gamma-1 (Homo sapiens). Briefly: Activation of C-terminal His tagged human recombinant full length AMPK alpha1/beta1/gamma1 expressed in baculovirus infected Sf9 cells assessed as enzyme activation using SAMS peptide as substrate at 100 uM incubated for 60 mins by ADP-Glo luminescence assay relative to control.

Data set [12] in a line: Inhibition of AGE formation assessed as reduction in reduction in bovin serum albumin glycation at 1 mM incubated for 24 hrs in presence of glucose, Cu2+ by spectrophotometric analysis relative to control. The format is functional.
Data set [13] in a line: Inhibition of AGE formation assessed as reduction in reduction in bovin serum albumin glycation incubated for 24 hrs in presence of glucose, Cu2+ by spectrophotometric analysis. The class given is functional.
Data set [14] can be described thus: Inhibition of AGE formation assessed as reduction in reduction in bovin serum albumin glycation incubated for 24 hrs in presence of glucose by spectrophotometric analysis. The format is functional.
The nature of data set [15]: Binding affinity to glyoxal assessed as reduction in glyoxal by GirardT reagent based spectrophotometric method.
Data set [16] concerns the target T1, AMP-activated protein kinase (AMPK) alpha-1/beta-1/gamma-1 (Homo sapiens). The description is as §1.
Data set [17] can be described thus: Ratio of inhibition of formation in AGE for test compound to inhibition of formation in AGE for aminoguanidine at 1 mM incubated for 24 hrs in presence of glucose by spectrophotometric analysis.
Data set [18] in a line: Activation of recombinant rhesus monkey AMPK expressed in Sf9 cells using SAMS peptide as substrate preincubated for 30 mins followed by substrate addition and measured after 60 mins by fluorescence based assay. The arrangement: species or system Macaca mulatta.
Data set [19] concerns the target AMP-activated protein kinase, AMPK. Description: Activation of recombinant human AMPK expressed in Sf9 cells using SAMS peptide as substrate preincubated for 30 mins followed by substrate addition and measured after 60 mins by fluorescence based assay.
The target in data set [20] is 5'-AMP-activated protein kinase. Description: Activation of recombinant mouse AMPK expressed in Sf9 cells using SAMS peptide as substrate preincubated for 30 mins followed by substrate addition and measured after 60 mins by fluorescence based assay.
For data set [21], the target named is T2, AMP-activated protein kinase (AMPK) alpha-1/beta-1/gamma-1. Briefly: Activation of human AMPK alpha1/beta1/gamma1 expressed in baculovirus/Sf9 cells using SAMS peptide as substrate incubated for 15 mins by in presence of 33P-ATP by liquid scintillation counting method.

The source made the active and inactive calls. No cut-off for these calls is given here.

T2 sequence (P54619 whole entry): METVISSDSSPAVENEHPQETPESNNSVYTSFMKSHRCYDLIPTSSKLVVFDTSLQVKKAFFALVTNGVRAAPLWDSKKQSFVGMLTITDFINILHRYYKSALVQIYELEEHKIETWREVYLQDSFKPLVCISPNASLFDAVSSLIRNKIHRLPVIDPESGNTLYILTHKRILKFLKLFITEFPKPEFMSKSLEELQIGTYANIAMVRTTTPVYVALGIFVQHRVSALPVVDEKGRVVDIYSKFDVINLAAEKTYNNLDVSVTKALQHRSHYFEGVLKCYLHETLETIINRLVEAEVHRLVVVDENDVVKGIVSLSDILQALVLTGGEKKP
T2 sequence (Q9Y478 whole entry): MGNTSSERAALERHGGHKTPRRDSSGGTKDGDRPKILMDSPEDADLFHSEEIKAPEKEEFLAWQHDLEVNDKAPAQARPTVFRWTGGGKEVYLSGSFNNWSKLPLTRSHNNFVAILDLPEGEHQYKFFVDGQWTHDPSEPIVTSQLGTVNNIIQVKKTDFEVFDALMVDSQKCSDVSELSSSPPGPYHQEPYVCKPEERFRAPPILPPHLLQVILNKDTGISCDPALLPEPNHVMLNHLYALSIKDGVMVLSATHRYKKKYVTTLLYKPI
T2 sequence (Q13131 whole entry): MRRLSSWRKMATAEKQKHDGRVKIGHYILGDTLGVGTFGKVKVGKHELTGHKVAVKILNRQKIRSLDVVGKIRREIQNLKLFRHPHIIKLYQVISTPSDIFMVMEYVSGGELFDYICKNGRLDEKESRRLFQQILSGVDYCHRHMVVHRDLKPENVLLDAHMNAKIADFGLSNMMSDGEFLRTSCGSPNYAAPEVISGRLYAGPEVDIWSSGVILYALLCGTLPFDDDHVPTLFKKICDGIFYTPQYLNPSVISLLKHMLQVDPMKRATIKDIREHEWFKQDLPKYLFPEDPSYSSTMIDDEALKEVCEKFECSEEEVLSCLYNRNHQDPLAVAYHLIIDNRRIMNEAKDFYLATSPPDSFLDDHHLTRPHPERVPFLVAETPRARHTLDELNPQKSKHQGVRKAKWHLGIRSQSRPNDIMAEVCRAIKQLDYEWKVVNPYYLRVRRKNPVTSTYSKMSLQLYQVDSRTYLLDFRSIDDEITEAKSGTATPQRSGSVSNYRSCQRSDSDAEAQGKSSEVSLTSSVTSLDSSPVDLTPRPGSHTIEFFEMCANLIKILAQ
T1 sequence (P54619 whole entry): as the sequence (P54619 whole entry) above
T1 sequence (Q13131 whole entry partner): as the sequence (Q13131 whole entry) above
T1 sequence (Q9Y478 2-270 partner limits assumed): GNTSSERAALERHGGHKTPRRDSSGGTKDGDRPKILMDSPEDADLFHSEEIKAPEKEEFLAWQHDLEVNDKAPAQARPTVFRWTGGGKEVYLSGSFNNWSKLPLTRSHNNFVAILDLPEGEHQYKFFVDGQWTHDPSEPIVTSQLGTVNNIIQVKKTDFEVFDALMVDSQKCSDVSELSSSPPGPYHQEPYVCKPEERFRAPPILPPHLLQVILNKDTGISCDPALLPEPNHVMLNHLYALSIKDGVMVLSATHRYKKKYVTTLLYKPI

What is called inhibition is the drop in the measured response relative to a control, in per cent. On to `Br.COC(=O)c1ccccc1-c1ccc(CN2C3=NCCCCN3c3ccccc32)cc1`, for which the inhibition in [1] was found to be 17.9%. In addition, the Ratio in [2] is given as 2.1 - 3.6. In addition, the Activity in [3] is -11.3%; in data set [4], 33.3%; in data set [5], 97.4%.
As a reminder, the solubility is the concentration that dissolves in the medium under given conditions. By IC50 is commonly meant the concentration that gives 50% inhibition. On to `Br.N#Cc1ccccc1-c1ccc(CN2C3=NCCCN3c3ccccc32)cc1`, for which the EC50 in data set [6] (read-out: EC50) came to 0.34 µM. The inhibition in [1] was -9.2%. Moreover, the Activity is 197% in [3], “Non-Toxic” in data set [7], 40.4% in [4] and “Non-Toxic” in data set [10]. Moreover, the solubility in data set [8] was greater than 500 µM. Besides, in data set [9], the IC50 was determined as 4.96 µM. Besides, the fold change (FC) in data set [11] worked out at 2.81.
As to `Br.N#Cc1ccccc1-c1ccc(CN2C3=NCCN3c3ccccc32)cc1`, the EC50 in [6] (read-out: EC50) was 109 µM; in data set [6] (read-out: pEC50 (converted)), 25.1 µM. Moreover, the inhibition in [1] was 8.6%. In addition, the Ratio in data set [2] is on record as 2.1 - 3.6. The Activity in data set [3] was determined as 163%; in data set [4], 21.9%; in data set [5], 57.1%. The compound also registered a solubility in [8] greater than 500 µM. In addition, the IC50 in [9] was determined as 5.32 µM. Also, the fold change (FC) in data set [11] is 1.56.
Take `CCCCc1nc(Cl)c(CO)n1Cc1ccc(-c2ccccc2-c2nnn[nH]2)cc1` [LOSARTAN]: the inhibition in data set [1] and in data set [12] was 51.4% throughout. The 50% inhibitory concentration (IC50) in data set [13] (read-out: IC50) is 782 µM; in data set [14] it was greater than 1000 µM. In data set [4], the Activity came to 99%.
With `N=C(N)NN` [PIMAGEDINE], in [1], the inhibition turned out to be 57.8%. The results for the IC50 result in [13] and in data set [14] were “Not Active” and 765 µM, respectively. Moreover, in data set [15], the outcome was Active.
Take `Br.c1ccc(-c2ccc(CN3C4=NCCN4c4ccccc43)cc2)cc1`: the inhibition in [1] was 22.5%. Also, the Ratio in data set [2] was 2.1 - 3.6. Besides, the Activity in data set [3] came to 54.2%; in [4] it was 5.2%; in data set [5], 89.2%.
For `Br.CCOC(=O)c1ccc(CN2C3=NCCN3c3ccccc32)cc1` the same measures were 17.5%, 2.1 - 3.6, 0.6%, 5.6% and 76.3%.
`CC(=O)Oc1ccccc1C(=O)O` [ASPIRIN]: the Activity in [5] was found to be 27.8%.
On to `O=C(O)c1ccccc1-c1ccc(CN2C3=NCCCCN3c3ccccc32)cc1`, for which, in [1], the inhibition was 30.8%. Further, the results for the Activity in data set [3] and in [4] were -36.4% and 20%, respectively.
With `Br.N#Cc1ccccc1-c1ccc(CN2C3=NCCCCN3c3ccccc32)cc1`, the EC50 in data set [6] (read-out: EC50) stood at 0.44 µM. Moreover, the Activity in data set [3] is 293%; in data set [7], “Non-Toxic”; in data set [4] it was 0%; in [10], “Non-Toxic”. The same compound showed a solubility in data set [8] greater than 500 µM. Moreover, the fold change (FC) in data set [11] was 4.
For `Cc1ccc(OCCSc2ncccn2)c(Br)c1`, in [6] (read-out: EC50), the EC50 came to 0.55 µM. For the same compound, in [3], the Activity came to 157%.
`Br.c1ccc(-c2ccc(CN3C4=NCCCN4c4ccccc43)cc2)cc1`: the inhibition in data set [1] amounted to 9.9%. Also, the Ratio in data set [2] is reported as 2.1 - 3.6. Further, the Activity in data set [3] turned out to be 16%; in [4], 14.6%; in data set [5], 95.2%.
In the case of `O=C(O)c1ccccc1-c1ccc(CN2C3=NCCCN3c3ccccc32)cc1`, in [1], the inhibition was 38.5%. In addition, the values for the Activity in data set [3] and in data set [4] were -16.2% and 7.5%, respectively.
Consider `COC(=O)c1ccccc1-c1ccc(CN2C3=NCCN3c3ccccc32)cc1`, for which the inhibition in data set [1] was found to be 0.4%. For the same compound, the Activity in data set [3] was 3.5%; in [4] it was -5.7%.
Take `Br.c1ccc(-c2ccc(CN3C4=NCCCCN4c4ccccc43)cc2)cc1`: the Ratio in data set [2] is given as 2.1 - 3.6. Moreover, the Activity in data set [3] turned out to be 12.3%; in data set [4], 13.5%; in data set [5], 98.7%.
On to `COC(=O)c1ccccc1-c1ccc(CN2C3=NCCCN3c3ccccc32)cc1`, for which, in data set [1], the inhibition was 14.9%. Further, the results for the Activity in data set [3] and in data set [4] were 21.7% and 5.9%, respectively.
For `O=C(O)c1ccccc1-c1ccc(CN2C3=NCCN3c3ccccc32)cc1` the same measures were 7.7%, 6.9% and -1.7%.
As for `Br.N#Cc1ccc(C(=O)CN2C3=NCCN3c3ccccc32)cc1`, in [16], the pEC50 result was “inactive”. Further, the inhibition in data set [1] is 72.1%; in [12] it was 25.4%. Also, the Ratio in [17] worked out at 1.8. The IC50 in data set [13] (read-out: IC50) is greater than 1000 µM; in data set [14], 422 µM. For the same compound, the Activity came out at 25.5% in data set [3], 0% in data set [4] and 6.6% in data set [5]. In addition, in [8], the solubility is greater than 500 µM. Further, in [11], the “fold change (FC)” value is “inactive”. For the same compound, the result in data set [15] was Active.
Regarding `Br.O=C(O)c1ccc(CN2C3=NCCN3c3ccccc32)cc1`, the inhibition in data set [1] was found to be 19.2%. Also, in [2], the Ratio is listed as 2.1 - 3.6. For the same compound, the Activity came to 3.7% in data set [3], 11.1% in data set [4] and 57% in data set [5].
For `O[C@@H]1CO[C@H]2[C@@H]1OC[C@H]2Oc1nc2nc(-c3ccc(-c4ccccc4)cc3)c(Cl)cc2[nH]1`, the EC50 in [18], in [19] and in [20] was 0.001 to 0.06 µM in each case.
For the compound `C[C@@H]1C[C@H]2[C@@H]3CCC4=CC(=O)C=C[C@]4(C)[C@@]3(F)[C@@H](O)C[C@]2(C)[C@@]1(O)C(=O)CO` [DEXAMETHASONE], the IC50 in data set [9] was 0.15 µM.
With `N#Cc1c(O)c2c(-c3ccc(-c4ccccc4O)cc3)csc2[nH]c1=O`, the EC50 in [21] was determined as 0.8 µM.

Source of the values: ChEMBL document CHEMBL4346753, “Towards multi-target antidiabetic agents: Discovery of biphenyl-benzimidazole conjugates as AMPK activators” (Bioorg Med Chem Lett, 2019).
